According to patent publication US5013743A, “Selective antibacterial agent against campytobacter” (Takeda Chemical Industries, Ltd., priority 1989, dated 1991):
≈ marks a conversion by molar mass, not a printed value.

What was measured:
C. pylori NCTC 11916 = assay: MIC, agar-plate dilution method, test strain A; type: cell-based; conditions: Helicobacter pylori, NCTC11916, 72 h, Brucella agar, 37° C., 3 days
Procedure: (§1) The minimum inhibitory concentration (MIC) of each compound was determined by the agar-plate dilution method based on the standard method advocated by Japan Society of Chemotherapy [cf: Chemotherapy, Jan. '81, p. 76]. The volume of agar medium per plate was 20 ml. Each of the test compounds was dissolved in dimethylsulfoxide at a concentration of 80 mg/ml or 40 mg/ml, and diluted 10 times with sterile distilled water. Furthermore, the aqueous solution of 8 mg/ml or 4 mg/ml was diluted serially 2-fold with sterile distilled water. To 2 ml of the diluted solution was added 18 ml of Brucella agar (BBL Microbiology Systems, Becton Dickinson and Co., Cockeysville, Md. 21030) containing 7% defibrinated horse blood (manufactured by Nippon Bio-supp. Center) and mixed well. Test strains frozen at -80° C. in Brucella broth (BBL) containing 10% horse serum were thawed and inoculated on a Brucella agar slant medium containing 7% defibrinated horse blood. The medium was incubated anaerobically at 37° C. for 3 days in a jar containing a piece of sponge sufficiently impregnated with water and Campy Pak™ (BBL). The organisms grown on the slant medium were collected and suspended in a Brucella broth to correspond to the turbidity of about 10^8 CFU/ml of common bacteria. One platinum loop of inoculum was streaked on the medium plates for determination. The plates were incubated under the same conditions as described above.

C. pylori PCL 56 = assay: MIC, agar-plate dilution method, test strain C; type: cell-based; conditions: Helicobacter pylori, PCL56, 72 h, Brucella agar, 37° C., 3 days
Procedure: as §1, with “above. […] The results are shown in Table 2 and Table 3. | C: C. pylori PCL 56” for “above.”

C. pylori CLO 6 = assay: MIC, agar-plate dilution method, test strain G; type: cell-based; conditions: Helicobacter pylori, CLO6, 72 h, Brucella agar, 37° C., 3 days
Procedure: as §1

genus Campylobacter = assay: Antibacterial activity against the genus Campylobacter (Tables 2 and 3, summary in words); type: cell-based, Campylobacter pylori; conditions: fluorinated alkyl derivatives vs other derivatives, Table 2 and Table 3
Procedure: as §1

aerobic bacteria = assay: Antibacterial action against aerobic bacteria (Table 4, summary in words); type: cell-based; conditions: summary of Table 4
Excerpt: Antibacterial activities of some compounds of the present invention against aerobic common bacteria were examined.

[1] = Inspection of lyophilized compound (1) for solubility, appearance and content immediately after dissolution; type: physicochemical; conditions: for Appearance / Clarity / Content: after dissolution; for Content: taken as 100.0% (HPLC)
Procedure: (§2) The resulting filtrate was filled in 1 ml portions into vials of a 12 cm^3 capacity, followed by lyophilization by means of the conventional technique.
(§3) *As measured by use of highperformance liquid chromatography (HPLC),
(§4) whereby the content determined immediately after preparation was taken as
(§5) Chromatographic conditions of HPLC:
(§6) Nucleosil 5 C18 (supplied by GasChro Kogyo K.K. of Japan) 4.0 mm
(§7) Methanol:water:triethylamine (60:40:1, pH 7)
(§8) UV spectrophotometry at 285 mm

[2] = Stability of the lyophilized compound (1) after being dissolved in vials, storage for 24 hours; type: physicochemical
Procedure: as §2, §3, §4, §5, §6, §7, §8

[3] = type: in vivo; conditions: oral, mice, 200 mg/kg

## Cc1c(OCC(F)(F)F)ccnc1C[S+]([O-])c1nc2ccccc2[nH]1 (stereo not drawn) [Compound 1]
C. pylori NCTC 11916
  MIC: 12.5 µg/mL (≈ 33.8 µM)
C. pylori PCL 56
  MIC: 6.25 µg/mL (≈ 16.9 µM)
C. pylori CLO 6
  MIC: 3.13 µg/mL (≈ 8.47 µM)
Genus Campylobacter
  antibacterial activity compared with other derivatives: stronger antibacterial activity
Aerobic bacteria
  antibacterial action against the aerobic bacteria: did not possess at all antibacterial action
[1]; Solvent A
  pH after dissolution: 8.7
  Appearance: Colorless
  Clarity: Clear
  Content: 100%
[1]; Solvent A (N-methylglucamine, HCl, propylene glycol, ethanol)
  Solubility: Good
[1]; Solvent B
  pH after dissolution: 9.0
  Appearance: Colorless
  Clarity: Clear
  Content: 100%
[1]; Solvent B (N-methylglucamine, HCl, polyethylene glycol 400, ethanol, water)
  Solubility: Good
[1]; Solvent C
  pH after dissolution: 9.0
  Appearance: Colorless
  Clarity: Clear
  Content: 100%
[1]; Solvent C (N-methylglucamine, HCl, ethanol, propylene glycol, water)
  Solubility: Good
[1]; Solvent D
  pH after dissolution: 9.0
  Appearance: Colorless
  Clarity: Clear
  Content: 100%
[1]; Solvent D (N-methylglucamine, HCl, polyethylene glycol 400, water)
  Solubility: Good
[1]; Solvents A to D
  dissolution speed: dissolved quickly
  solubilities of the lyophilized powder in all of these solvents: excellent solubilities
[2]; Solvents A to D, 24 hours
  change in content of compound (1): decrease slightly
  change in the stage of solution: no change in the stage of solution
[2]; after storage at 5° C. for 24 hrs., Solvent A
  Clarity: Clear
[2]; after storage at 5° C. for 24 hrs., Solvent B
  Clarity: Clear
[2]; after storage at 5° C. for 24 hrs., Solvent C
  Clarity: Clear
[2]; after storage at 5° C. for 24 hrs., Solvent D
  Clarity: Clear
[2]; after storage at 5° C. for 24 hrs., Solvents A to D
  Appearance: Slightly to lightly green-yellow
[2]; immediately after dissolution and after storage for 24 hours
  changes in appearance: slight changes in appearance

## COc1ccc2[nH]c([S+]([O-])Cc3ncc(C)c(OC)c3C)nc2c1 (stereo not drawn) [Compound 2]
C. pylori NCTC 11916
  MIC: 25 µg/mL (≈ 72.4 µM)
C. pylori PCL 56
  MIC: 12.5 µg/mL (≈ 36.2 µM)
C. pylori CLO 6
  MIC: 12.5 µg/mL (≈ 36.2 µM)
Aerobic bacteria
  antibacterial action against the aerobic bacteria: did not possess at all antibacterial action

## Cc1c(OCC(F)(F)F)ccnc1CSc1nc2ccccc2[nH]1 [Compound 6]
C. pylori NCTC 11916
  MIC: 6.25 µg/mL (≈ 17.7 µM)
C. pylori PCL 56
  MIC: 6.25 µg/mL (≈ 17.7 µM)
C. pylori CLO 6
  MIC: 6.25 µg/mL (≈ 17.7 µM)
Genus Campylobacter
  antibacterial activity compared with other derivatives: stronger antibacterial activity
Aerobic bacteria
  antibacterial action against the aerobic bacteria: did not possess at all antibacterial action
[3]
  dead animals: no dead animals
